Measured values as given in patent publication US20240317727A1 (Duke University, priority 2018, published 2024).

What follows are molecules tested against T1, recombinant HSF1 DNA-binding domain (DBD) (Homo sapiens, UniProt Q00613) (assay: Differential Scanning Fluorimetry (DSF), HSF1 DBD melting temperature). Details: Table 1; 5 μM HSF1 DBD, 25PM Compound; positive = stabilizes, negative = destabilizes HSF1.
T1 sequence (Q00613 15-120): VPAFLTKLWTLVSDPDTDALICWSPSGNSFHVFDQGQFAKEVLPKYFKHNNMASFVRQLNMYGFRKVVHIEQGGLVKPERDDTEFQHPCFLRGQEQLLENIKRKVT

SMILES | ΔTm at 25 µM [°C]
O=C(Nc1cccc(Cl)c1)Nc1ccc(Cl)c([N+](=O)[O-])c1 [Compound 0061, 1-(4-chloro-3-nitrophenyl)-3-(3-chlorophenyl)urea] | 2.94
Cc1cccc(NC(=O)Nc2cccc([N+](=O)[O-])c2)c1 [Compound 0067, 1-(3-nitrophenyl)-3-(m-tolyl)urea] | 4
O=C(Nc1cccc([N+](=O)[O-])c1)Nc1ccc(F)cc1C(=O)O [Compound 0106, 5-fluoro-2-(3-(3-nitrophenyl)ureido)benzoic acid] | 3.28
O=[N+]([O-])c1cc(C(F)(F)F)cc([N+](=O)[O-])c1Oc1ccc(C2CCCCC2)cc1 [Compound 0102] | -6.23
Cc1cc(Oc2c([N+](=O)[O-])cc(C(F)(F)F)cc2[N+](=O)[O-])c2c(Cl)ccc(C)c2n1 [Compound 0111] | -5.21
O=[N+]([O-])c1cc(/C=N/Nc2ccc(Br)c(Cl)c2)cs1 [Compound 0038] | 7.27
COC(=O)c1cc(C#N)c(Sc2c([N+](=O)[O-])cc(C(F)(F)F)cc2[N+](=O)[O-])nc1C(OC)OC [Compound 0013] | -7.4
CCC(C(=O)C(C)C(O)C(C)CCc1ccc(C)c(O)c1C(=O)O)C1OC(CC)(C2CCC(O)(CC)C(C)O2)CC1C (stereo not shown) [Compound 0056] | -5.96
O=C(Nc1ccc(F)c(F)c1)Nc1ccc(Cl)c(C(F)(F)F)c1 [Compound 0101, 1-(4-chloro-3-(trifluoromethyl)phenyl)-3-(3,4-difluorophenyl)urea] | 3.33
Cc1cc(C(C#N)c2ccc(Cl)cc2)c(Cl)cc1NC(=O)c1cc(I)cc(I)c1O (stereo not shown) [Compound 0040] | -7.95
O=C(Nc1ccc(F)cc1)Nc1cccc(Cl)c1 [Compound 0060, 1-(3-chlorophenyl)-3-(4-fluorophenyl)urea] | 2.5
COc1cc2cc(N(C)CCCNC(=O)C3CCCO3)cc(N)c2cc1OC (stereo not shown) [Compound 0088] | -3.02
Oc1ccc(Cl)cc1/C=N/Nc1cccc(C(F)(F)F)c1 [Compound 0024] | 4.44
CCOC(=O)c1sc(Sc2ccc([N+](=O)[O-])cc2[N+](=O)[O-])nc1C [Compound 0108] | -4.19
O=C(Nc1ccccc1)Nc1ccc(OC(F)(F)F)cc1 [Compound 0085] | 3.26
CSc1sc(NC(=O)Nc2cccc(C(F)(F)F)c2)cc1C#N [Compound 0065] | 4.44
O=[N+]([O-])c1cc(C(F)(F)F)cc([N+](=O)[O-])c1Oc1ccc(C2SCCS2)cc1 [Compound 0062] | -6.9
c1ccc(-c2ccc(C(c3ccccc3)n3ccnc3)cc2)cc1 (stereo not shown) [Compound 0081] | -3.6
O=C(Nc1ccc(Cl)c(Cl)c1)Nc1ccc(Cl)c([N+](=O)[O-])c1 [Compound 0044, 1-(4-chloro-3-nitrophenyl)-3-(3,4-dichlorophenyl)urea] | 2.33

SMILES | ΔTm at 25 µM [°C]
O=C(Nc1ccccc1)Nc1ccc(Cl)c(Cl)c1 [Compound 0022, 1-(3,4-dichlorophenyl)-3-phenylurea] | 2.78
CC(NC(=O)CSc1nnc(-c2ccccc2O)n1-c1ccccc1)c1ccccc1 (stereo not shown) [Compound 0052] | -11
CC(C)c1ccc2c(c1)c(SC(C)(C)C)c(CC(C)(C)C(=O)O)n2Cc1ccc(Cl)cc1 [Compound 0109] | -9.02
Cc1ccc(NC(=O)Nc2ccc(Cl)cc2)cc1 [Compound 0113, 1-(4-chlorophenyl)-3-(p-tolyl)urea] | 2.28
O=C(Nc1ccc(F)cc1)Nc1cccc([N+](=O)[O-])c1 [Compound 0076, 1-(4-fluorophenyl)-3-(3-nitrophenyl)urea] | -7.23
CC(=O)Nc1cc(NC(=O)Nc2ccc(F)cc2)ccc1Cl [Compound 0095, N-[2-chloro-5-[(4-fluorophenyl)carbamoylamino]phenyl]acetamide] | 0.67
O=C(Nc1ccc(Cl)cc1)Nc1ccc(Cl)cc1 [Compound 0018, 1,3-bis(4-chlorophenyl)urea] | 2.44
O=C(Nc1ccc(Cl)cc1)Nc1cccc([N+](=O)[O-])c1 [Compound 0049, 1-(4-chlorophenyl)-3-(3-nitrophenyl)urea] | 3.11
CCN1C(=O)/C(=C\c2cc([N+](=O)[O-])cc(Br)c2O)SC1=S [Compound 0099] | -6.74
CCOC(=O)CCc1ccc(Oc2c([N+](=O)[O-])cc(C(F)(F)F)cc2[N+](=O)[O-])cc1 [Compound 0072] | 3.39
O=C(Nc1ccc(Cl)cc1)Nc1ccc(Cl)c(Cl)c1 [Compound 0001] | 4.78
O=c1c(Nc2ccc(F)c(F)c2)c(Nc2ccc(Cl)c(C(F)(F)F)c2)c1=O [Compound 0092, 3-[4-chloro-3-(trifluoromethyl)anilino]-4-(3,4-difluoroanilino)cyclobut-3-ene-1,2-dione] | 2.33
O=C(Nc1ccc(Cl)c([N+](=O)[O-])c1)Nc1ccc(F)cc1C1(C(F)(F)F)N=N1 [Compound 0079, 1-(4-chloro-3-nitro-phenyl)-3-[4-fluoro-2-[3-(trifluoromethyl)diazirin-3-yl]phenyl]urea] | 2.25
Cc1ccc(CNC(=O)CSc2nnc(-c3cccc(N)c3)n2-c2ccccc2)cc1 [Compound 0004] | -9.46
O=[N+]([O-])c1cc(C(F)(F)F)cc([N+](=O)[O-])c1Oc1ccc(F)cc1F [Compound 0012] | -4.73
O=C(Nc1ccc(F)cc1)Nc1ccc(Cl)c(O)c1 [Compound 0103, 1-(4-chloro-3-hydroxyphenyl)-3-(4-fluorophenyl)urea] | 4.7
O=C(N/N=C/c1ccc(Br)s1)c1[nH]cc2ccccc12 [Compound 0069] | 8.06
O=C(Nc1ccc(Cl)cc1)Nc1ccc(Cl)c([N+](=O)[O-])c1 [Compound 0048, 1-(4-chloro-3-nitrophenyl)-3-(4-chlorophenyl)urea] | 2.61

Same assay, conditions: Table 3; 5 μM HSF1 DBD, 25PM Compound; positive = stabilizes, negative = destabilizes HSF1

SMILES | ΔTm at 25 µM [°C]
Cc1cccc(NC(=O)Nc2ccc(Cl)c([N+](=O)[O-])c2)c1 [Compound 026, 1-(4-chloro-3-nitrophenyl)-3-(m-tolyl)urea] | 5.75
O=C(Nc1ccc(Cl)c([N+](=O)[O-])c1)Nc1ccc(F)cc1C1(C(F)(F)F)N=N1 [Compound 079, 1-(4-chloro-3-nitro-phenyl)-3-[4-fluoro-2-[3-(trifluoromethyl)diazirin-3-yl]phenyl]urea] | 2.25
O=C(Nc1ccc(Cl)cc1)Nc1cccc([N+](=O)[O-])c1 [Compound 049, 1-(4-chlorophenyl)-3-(3-nitrophenyl)urea] | 3.11
O=C(Nc1ccc(F)cc1)Nc1ccc2nonc2c1 [Compound 027, 1-(2,1,3-benzoxadiazol-5-yl)-3-(4-fluorophenyl)urea] | 2.8
O=c1c(Nc2ccc(F)cc2)c(Nc2ccc(Cl)c([N+](=O)[O-])c2)c1=O [Compound 002, 3-(4-chloro-3-nitro-anilino)-4-(4-fluoroanilino)cyclobut-3-ene-1,2-dione] | 1.9
O=C(Nc1ccc(Cl)c(Cl)c1)Nc1ccc(Cl)c([N+](=O)[O-])c1 [Compound 044, 1-(4-chloro-3-nitrophenyl)-3-(3,4-dichlorophenyl)urea] | 2.33
O=C(Nc1ccc(Cl)cc1)Nc1ccc(Cl)cc1 [Compound 018, 1,3-bis(4-chlorophenyl)urea] | 2.44
O=[N+]([O-])c1cc(NC2=NS(=O)(=O)N=C2Nc2ccc(F)cc2)ccc1Cl [Compound 080, N3-(4-chloro-3-nitro-phenyl)-N4-(4-fluorophenyl)-1,1-dioxo-1,2,5-thiadiazole-3,4-diamine] | 1.6
O=C(Nc1ccc(F)cc1)Nc1cccc([N+](=O)[O-])c1 [Compound 076, 1-(4-fluorophenyl)-3-(3-nitrophenyl)urea] | 2.61
O=C(Nc1ccc(F)cc1)Nc1cccc(Cl)c1 [Compound 060, 1-(3-chlorophenyl)-3-(4-fluorophenyl)urea] | 2.5
O=C(Nc1cccc(F)c1)Nc1ccc(Cl)c([N+](=O)[O-])c1 [Compound 020, 1-(4-chloro-3-nitrophenyl)-3-(3-fluorophenyl)urea] | 5.2
N#Cc1cc(NC(=O)Nc2ccc(F)cc2)ccc1Cl [Compound 083, 1-(4-chloro-3-cyano-phenyl)-3-(4-fluorophenyl) urea] | 2
O=c1c(Nc2ccc(F)c(F)c2)c(Nc2ccc(Cl)c(C(F)(F)F)c2)c1=O [Compound 092, 3-[4-chloro-3-(trifluoromethyl)anilino]-4-(3,4-difluoroanilino)cyclobut-3-ene-1,2-dione] | 2.33
Cc1ccc(NC(=O)Nc2cccc(C(F)(F)F)c2)cc1 [Compound 058, 1-(p-tolyl)-3-(3-(trifluoromethyl)phenyl)urea] | 2.58
O=C(Nc1ccccc1)Nc1ccc(Cl)c(Cl)c1 [Compound 022, 1-(3,4-dichlorophenyl)-3-phenylurea] | 2.78
O=C(Nc1ccccc1)Nc1cccc(Cl)c1 [Compound 091, 1-(3-chlorophenyl)-3-phenylurea] | 2.5
Cc1cccc(NC(=O)Nc2cccc([N+](=O)[O-])c2)c1 [Compound 067, 1-(3-nitrophenyl)-3-(m-tolyl)urea] | 4
O=C(Nc1ccc(F)cc1)Nc1ccc(Cl)c(S(=O)(=O)C(F)(F)F)c1 [Compound 054, 1-[4-chloro-3-(trifluoromethylsulfonyl)phenyl]-3-(4-fluorophenyl)urea] | 2.9
Cc1ccc(NC(=O)Nc2ccc(Cl)c([N+](=O)[O-])c2)cc1 [Compound 046, 1-(4-chloro-3-nitrophenyl)-3-(p-tolyl)urea] | 4.3
O=C(Nc1cccc(Cl)c1)Nc1cccc([N+](=O)[O-])c1 [Compound 078, 1-(3-chlorophenyl)-3-(3-nitrophenyl)urea] | 2.5
O=C(Nc1ccc(Cl)cc1)Nc1cccc(Cl)c1 [Compound 066, 1-(3-chlorophenyl)-3-(4-chlorophenyl)urea] | 3
